This test deals with T1, glucagon receptor (Homo sapiens, UniProt P47871).
T1 construct: expressed in transfected cells
The test can be described thus: Assay (I) Glucagon activity (cAMP biosensor, FLIPR). The note with it: HEK-293 cells with cloned glucagon receptor and cAMP biosensor; end point after 6 minutes. In kind it is cell-based. As for the experimental part: The glucagon receptor was cloned into HEK-293 cells having a membrane bound cAMP biosensor (ACTOne™). The cells (14000 per well) were incubated (37° C., 5% CO2) overnight in 384-well plates. Next day the cells were loaded with a calcium responsive dye that only distributed into the cytoplasm. Probenecid, an inhibitor of the organic anion transporter, was added to prevent the dye from leaving the cell. A PDE inhibitor was added to prevent formatted cAMP from being degraded, The plates were placed into a […] and the glucagon analogues were added. End point data were collected after 6 minutes. An increase in intracellular cAMP was proportional to an increased in calcium concentrations in the cytoplasm. When calcium was bound the dry a fluorescence signal was generated. EC50-values were calculated in Prism5.

*1 amine or outer side, *2 acyl side, *3 side chain or, on linkers, in order; H or OH if unused. Where a SMILES comes first, the peptide text is derived from it. Side-chain parts run from the residue outwards. γGlu = O=C(O)[C@H](CCC(=O)[*:2])N[*:1]

T1 sequence (P47871 26-477): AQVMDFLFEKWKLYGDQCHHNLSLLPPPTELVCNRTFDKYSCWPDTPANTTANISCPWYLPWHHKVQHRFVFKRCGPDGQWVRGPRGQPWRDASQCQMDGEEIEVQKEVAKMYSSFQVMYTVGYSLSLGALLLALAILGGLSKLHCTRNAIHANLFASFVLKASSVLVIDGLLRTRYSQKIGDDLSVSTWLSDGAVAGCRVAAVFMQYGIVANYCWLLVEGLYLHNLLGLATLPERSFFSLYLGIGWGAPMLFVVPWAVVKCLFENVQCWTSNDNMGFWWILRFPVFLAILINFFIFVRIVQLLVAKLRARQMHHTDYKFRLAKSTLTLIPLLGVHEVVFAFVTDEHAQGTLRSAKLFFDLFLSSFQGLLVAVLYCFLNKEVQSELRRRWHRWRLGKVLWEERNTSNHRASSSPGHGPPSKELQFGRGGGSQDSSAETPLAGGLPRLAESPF

Usually EC50 stands for the concentration giving half of the maximal effect. High values mean lower potency in that assay, low ones higher potency in that assay. Turning to `CC(=O)N[C@@H](CCC(=O)N[C@@H](CCC(=O)N[C@@H](CCC(=O)N[C@@H](CCC(=O)NCCCC[C@H](NC(=O)[C@@H](NC(=O)[C@H](Cc1ccccc1)NC(=O)[C@H](CC(=O)O)NC(=O)[C@H](CCC(N)=O)NC(=O)[C@H](C)NC(=O)[C@H](CCCNC(=N)N)NC(=O)[C@H](CCCNC(=N)N)NC(=O)[C@H](CC(C)C)NC(=O)[C@H](CC(=O)O)NC(=O)[C@H](CC(C)C)NC(=O)[C@H](Cc1ccc(O)cc1)NC(=O)[C@H](CCCCN)NC(=O)[C@H](CO)NC(=O)[C@@H](NC(=O)[C@H](CC(=O)O)NC(=O)[C@H](CO)NC(=O)[C@@H](NC(=O)[C@H](Cc1ccccc1)NC(=O)[C@@H](NC(=O)CNC(=O)[C@H](CCC(N)=O)NC(=O)[C@H](CO)NC(=O)[C@@H](N)Cc1c[nH]cn1)[C@@H](C)O)[C@@H](C)O)C(C)C)C(C)C)C(=O)N[C@@H](Cc1c[nH]c2ccccc12)C(=O)N[C@@H](CC(C)C)C(=O)N[C@@H](CC(C)C)C(=O)N[C@@H](CO)C(=O)N[C@H](C(=O)O)[C@@H](C)O)C(=O)O)C(=O)O)C(=O)O)C(=O)O` [Example 43, N^ε24-[(4S)-4-[[(4S)-4-[[(4S)-4-[[(4S)-4-acetamido-4-carboxybutanoyl]amino]-4-carboxybutanoyl]amino]-4-carboxybutanoyl]amino]-4-carboxybutanoyl]-[Val^10,Leu^16,Lys^24,Leu^27,Ser^28]-Glucagon] (H-HSQGTFTSDVSKYLDLRRAQDFVK([γGlu-γGlu-γGlu-γGlu-Ac])WLLST-OH), the EC50 is 0.016 nM.

For the compound `CC(=O)N[C@@H](CCC(=O)N[C@@H](CCC(=O)N[C@@H](CCC(=O)N[C@@H](CCC(=O)NCCCC[C@H](NC(=O)[C@H](CC(C)C)NC(=O)[C@H](CC(C)C)NC(=O)[C@H](Cc1c[nH]c2ccccc12)NC(=O)[C@H](CCC(N)=O)NC(=O)[C@@H](NC(=O)[C@H](Cc1ccccc1)NC(=O)[C@H](CC(=O)O)NC(=O)[C@H](CCC(N)=O)NC(=O)[C@H](C)NC(=O)[C@H](CCCNC(=N)N)NC(=O)[C@H](CCCNC(=N)N)NC(=O)[C@H](CO)NC(=O)[C@H](CC(=O)O)NC(=O)[C@H](CC(C)C)NC(=O)[C@H](Cc1ccc(O)cc1)NC(=O)[C@H](CCCCN)NC(=O)[C@H](CO)NC(=O)[C@H](Cc1ccc(O)cc1)NC(=O)[C@H](CC(=O)O)NC(=O)[C@H](CO)NC(=O)[C@@H](NC(=O)[C@H](Cc1ccccc1)NC(=O)[C@@H](NC(=O)CNC(=O)[C@H](CCC(N)=O)NC(=O)[C@H](CO)NC(=O)[C@@H](N)Cc1c[nH]cn1)[C@@H](C)O)[C@@H](C)O)C(C)C)C(=O)N[C@H](C(=O)O)[C@@H](C)O)C(=O)O)C(=O)O)C(=O)O)C(=O)O` [Example 53, N^ε28-[(4S)-4-[[(4S)-4-[[(4S)-4-[[(4S)-4-acetamido-4-carboxybutanoyl]amino]-4-carboxybutanoyl]amino]-4-carboxybutanoyl]amino]-4-carboxybutanoyl]-[Leu^27,Lys^28]-Glucagon], the midpoint of the response, the EC50, lay at 0.007 nM. This EC50 is about 2.3-fold lower than that of the compound before.

As for `CC(=O)N[C@@H](CCC(=O)N[C@@H](CCC(=O)N[C@@H](CCC(=O)N[C@@H](CCC(=O)NCCCC[C@H](NC(=O)[C@@H](NC(=O)[C@H](Cc1ccccc1)NC(=O)[C@H](CC(=O)O)NC(=O)[C@H](CCC(N)=O)NC(=O)[C@H](C)NC(=O)[C@H](CCCNC(=N)N)NC(=O)[C@H](CCCNC(=N)N)NC(=O)[C@H](CO)NC(=O)[C@H](CC(=O)O)NC(=O)[C@H](CC(C)C)NC(=O)[C@H](Cc1ccc(O)cc1)NC(=O)[C@H](CCCCN)NC(=O)[C@H](CO)NC(=O)[C@H](Cc1ccc(O)cc1)NC(=O)[C@H](CC(=O)O)NC(=O)[C@H](CO)NC(=O)[C@@H](NC(=O)[C@H](Cc1ccccc1)NC(=O)[C@@H](NC(=O)CNC(=O)[C@H](Cc1c[nH]cn1)NC(=O)[C@H](CO)NC(=O)[C@@H](N)Cc1c[nH]cn1)[C@@H](C)O)[C@@H](C)O)C(C)C)C(=O)N[C@@H](Cc1c[nH]c2ccccc12)C(=O)N[C@@H](CC(C)C)C(=O)N[C@@H](CC(C)C)C(=O)N[C@@H](CC(N)=O)C(=O)N[C@H](C(=O)O)[C@@H](C)O)C(=O)O)C(=O)O)C(=O)O)C(=O)O` [Example 19, N^ε24-[(4S)-4-[[(4S)-4-[[(4S)-4-[[(4S)-4-acetamido-4-carboxybutanoyl]amino]-4-carboxybutanoyl]amino]-4-carboxybutanoyl]amino]-4-carboxybutanoyl]-[His3,Lys24,Leu27]-Glucagon], the EC50 was 0.0145 nM. This EC50 lies about 2.1-fold higher than the previous one.

These data come from patent US20140031278A1, “Novel Glucagon Analogues” (NOVO NORDISK A/S, priority 2011, published 2014).
